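Where inhibition never reached the appropriate level, the endpoint shown equals the highest concentration tested. Otherwise, values were interpolated linearly from a five-concentration, 48-hour dose response in 96-well plates. GI50 marks 50% less growth.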 The source made the active and inactive calls. Rule as the data show it: active = GI50 up to about 1.1 µM and inactive = higher.
Assays:
Assay in all cases: DTP human tumour cell line panel, 48 h
HOP-62 = system: HOP-62
OVCAR-4 = system: OVCAR-4
HCT-15 = system: HCT-15
NCI-H460 = system: NCI-H460
SK-MEL-5 = system: SK-MEL-5
MDA-N = system: MDA-N
T47D = system: T47D
CCRF-CEM = system: CCRF-CEM
SK-MEL-28 = system: SK-MEL-28
HL-60 = system: HL-60
NCI-H23 = system: NCI-H23
SNB-75 = system: SNB-75
SF-539 = system: SF-539
LOX IMVI = system: LOX IMVI
A549 = system: A549
DU-145 = system: DU-145

Compound	GI50 (HOP-62)	GI50 (OVCAR-4)	GI50 (HCT-15)	GI50 (NCI-H460)	GI50 (SK-MEL-5)	GI50 (MDA-N)	GI50 (T47D)	GI50 (CCRF-CEM)	GI50 (SK-MEL-28)	GI50 (HL-60)	GI50 (NCI-H23)	GI50 (SNB-75)	GI50 (SF-539)	GI50 (LOX IMVI)	GI50 (A549)	GI50 (DU-145)
COc1ccc(CSC2=C(C#N)C(=O)NC3(CCCCC3)S2)cc1	61.8 µM (inactive)	36.6 µM (inactive)	57.8 µM	69 µM (inactive)	42.5 µM (inactive)	22.4 µM (inactive)	27.5 µM (inactive)	2.66 µM (inactive)	> 73.6 µM (inactive)	3.63 µM (inactive)	48.8 µM (inactive)	62.2 µM (inactive)	> 56.6 µM (inactive)	30.1 µM (inactive)	> 83.8 µM (inactive)	> 85.7 µM (inactive)
CC1=CC(=O)c2cccc(NC3=NCCO3)c21	> 100 µM (inactive)	78.7 µM (inactive)	49.4 µM	31.3 µM (inactive)	23.2 µM (inactive)	27.7 µM (inactive)	68.7 µM (inactive)	42 µM (inactive)	78.7 µM (inactive)	19.7 µM (inactive)	43.5 µM (inactive)	52.6 µM (inactive)	46.8 µM (inactive)	37.8 µM (inactive)	81.7 µM (inactive)	74.1 µM (inactive)
CC(C)CC(=O)NC(Nc1ccc(S(=O)(=O)Nc2ncccn2)cc1)(C(F)(F)F)C(F)(F)F	> 100 µM (inactive)	> 100 µM (inactive)	> 100 µM	> 100 µM (inactive)	> 100 µM (inactive)	> 100 µM (inactive)	> 100 µM (inactive)	> 100 µM (inactive)	> 100 µM (inactive)	> 100 µM (inactive)	> 100 µM (inactive)	> 100 µM (inactive)	> 100 µM (inactive)	> 100 µM (inactive)	> 100 µM (inactive)	> 100 µM (inactive)
COC1(OC)C[C@H](C)[C@@]23O[C@]24C2=CC(=O)C=CC2=N[C@H]3C#C/C=C\C#C[C@]14O	0.787 µM (active)	0.501 µM (active)	0.432 µM	0.344 µM (active)	0.323 µM (active)	1.08 µM (active)	0.427 µM (active)	0.044 µM (active)	1.08 µM (active)	0.0431 µM (active)	0.411 µM (active)	0.133 µM (active)	0.634 µM (active)	0.3 µM (active)	0.71 µM (active)	1.04 µM (active)
Cc1nc(Nc2ccc(Cl)cc2Cl)sc1C(=O)Nc1ccccc1	81.1 µM (inactive)	73.6 µM (inactive)	74.1 µM	37.9 µM (inactive)	37.9 µM (inactive)	81.3 µM (inactive)	22.4 µM (inactive)	34.1 µM (inactive)	> 100 µM (inactive)	> 10 µM (inactive)	46 µM (inactive)	39 µM (inactive)	> 100 µM (inactive)	23.4 µM (inactive)	36.6 µM (inactive)	> 100 µM (inactive)
O=[N+]([O-])c1cc(C2ON=C(c3ccccc3)N2C23CC4CC(CC(C4)C2)C3)ccc1Cl (configuration not stated)	> 100 µM (inactive)	> 100 µM (inactive)	> 100 µM	> 100 µM (inactive)	> 100 µM (inactive)	> 100 µM (inactive)	> 100 µM (inactive)	> 100 µM (inactive)	> 100 µM (inactive)	> 100 µM (inactive)	> 100 µM (inactive)	15.5 µM (inactive)	> 100 µM (inactive)	> 100 µM (inactive)	> 100 µM (inactive)	> 100 µM (inactive)
CC(C)(CO[C@H]1C[C@H]2CC[C@@]1(C)C2(C)C)[N+](=O)[O-]	19.5 µM (inactive)	30.3 µM (inactive)	22.6 µM	19.6 µM (inactive)	17.3 µM (inactive)	15.6 µM (inactive)	19.6 µM (inactive)	18.8 µM (inactive)	18.5 µM (inactive)	0.0363 µM (active)	25.9 µM (inactive)	19.4 µM (inactive)	16.4 µM (inactive)	18.1 µM (inactive)	25.5 µM (inactive)	17.3 µM (inactive)
CCC1(CC)C(=O)OC(=O)C1(CC)CC	> 100 µM (inactive)	> 100 µM (inactive)	> 100 µM	> 100 µM (inactive)	> 100 µM (inactive)	> 100 µM (inactive)	> 100 µM (inactive)	> 100 µM (inactive)	> 100 µM (inactive)	> 100 µM (inactive)	> 100 µM (inactive)	> 100 µM (inactive)	> 100 µM (inactive)	> 100 µM (inactive)	> 100 µM (inactive)	> 100 µM (inactive)
CN(C)CCCNC(=O)c1cc(NC(=O)c2cc(NS(=O)(=O)c3ccc4c(c3)C(=O)c3ccccc3C4=O)cn2C)cn1C	> 100 µM (inactive)	> 100 µM (inactive)	> 100 µM	45 µM (inactive)	29.2 µM (inactive)	88.5 µM (inactive)	> 100 µM (inactive)	31.7 µM (inactive)	86.5 µM (inactive)	97.9 µM (inactive)	> 100 µM (inactive)	> 100 µM (inactive)	> 100 µM (inactive)	55.3 µM (inactive)	> 100 µM (inactive)	> 100 µM (inactive)
OCc1ccc2c(c1)CC1(Cc3ccc(/C=N/O)cc3C1)C2 (configuration not stated)	5.45 µM (inactive)	1.92 µM (inactive)	1.16 µM	3.3 µM (inactive)	1.34 µM (inactive)	0.328 µM (active)	11.3 µM (inactive)	1.96 µM (inactive)	6.82 µM (inactive)	0.41 µM (active)	3.19 µM (inactive)	2.88 µM (inactive)	2.72 µM (inactive)	2.93 µM (inactive)	4.93 µM (inactive)	5.24 µM (inactive)
CSc1nc2cc(S(=O)(=O)N3CCCCC3)ccc2s1	57 µM (inactive)	> 100 µM (inactive)	> 100 µM	> 100 µM (inactive)	> 100 µM (inactive)	> 100 µM (inactive)	> 100 µM (inactive)	> 100 µM (inactive)	> 100 µM (inactive)	> 100 µM (inactive)	> 100 µM (inactive)	61.4 µM (inactive)	> 100 µM (inactive)	> 100 µM (inactive)	> 100 µM (inactive)	> 100 µM (inactive)
c1ccc(/N=C2\c3ccccc3CN2c2ccccc2)cc1	> 100 µM (inactive)	> 100 µM (inactive)	> 100 µM	> 100 µM (inactive)	> 100 µM (inactive)	> 100 µM (inactive)	80.2 µM (inactive)	> 100 µM (inactive)	> 100 µM (inactive)	> 100 µM (inactive)	> 100 µM (inactive)	74.3 µM (inactive)	> 100 µM (inactive)	> 100 µM (inactive)	> 100 µM (inactive)	> 100 µM (inactive)
CC1CC(C(=O)OC2OC(COC3OC(CO)C(OC4OC(C)C(O)C(O)C4O)C(O)C3O)C(O)C(O)C2O)C2CCC3(C)C(=CCC4(C)C3CCC3C(C)(CO)C(O)C(O)CC34C)C2C1C (configuration not stated)	17.7 µM (inactive)	15.1 µM (inactive)	> 100 µM	20.7 µM (inactive)	18.7 µM (inactive)	19.5 µM (inactive)	18.4 µM (inactive)	21.9 µM (inactive)	17 µM (inactive)	21.6 µM (inactive)	16.3 µM (inactive)	16.9 µM (inactive)	18.4 µM (inactive)	21.7 µM (inactive)	96.6 µM (inactive)	33.5 µM (inactive)
OC(C#CCN1CCCC1)(c1ccccc1)c1ccccc1Cl (configuration not stated)	19.5 µM (inactive)	31 µM (inactive)	68.5 µM	20.2 µM (inactive)	17.7 µM (inactive)	23 µM (inactive)	28.6 µM (inactive)	33.6 µM (inactive)	17.1 µM (inactive)	26.8 µM (inactive)	37.3 µM (inactive)	59.4 µM (inactive)	26.5 µM (inactive)	18.7 µM (inactive)	33.4 µM (inactive)	> 100 µM (inactive)
O=C1/C(=C/c2ccccc2)CCc2ccc([N+](=O)[O-])cc21	> 71.3 µM (inactive)	39.5 µM (inactive)	39.7 µM	> 100 µM (inactive)	25.2 µM (inactive)	35 µM (inactive)	> 51.6 µM (inactive)	4.13 µM (inactive)	> 81.8 µM (inactive)	1.86 µM (inactive)	34.7 µM (inactive)	37.3 µM (inactive)	64.3 µM (inactive)	21.5 µM (inactive)	> 100 µM (inactive)	> 72.3 µM (inactive)
O=S(=O)(N/C(=N\O)Nc1ccc(Cl)cc1)c1cc2ccccc2o1	23.6 µM (inactive)	17.9 µM (inactive)	14.7 µM	38.7 µM (inactive)	15.3 µM (inactive)	38.8 µM (inactive)	> 100 µM (inactive)	22.1 µM (inactive)	17.9 µM (inactive)	15.3 µM (inactive)	18 µM (inactive)	38.1 µM (inactive)	33.9 µM (inactive)	11.5 µM (inactive)	26.1 µM (inactive)	47.2 µM (inactive)
COC(=O)c1c2c(cc3c1CC1(Cc4cc5c(c(C=O)c4C1)CCC5)C3)CCC2 (configuration not stated)	51.9 µM (inactive)	> 100 µM (inactive)	40.3 µM	45 µM (inactive)	16 µM (inactive)	34 µM (inactive)	30.7 µM (inactive)	13.4 µM (inactive)	52.5 µM (inactive)	25.8 µM (inactive)	47.8 µM (inactive)	> 100 µM (inactive)	75.5 µM (inactive)	22.5 µM (inactive)	27.9 µM (inactive)	38.1 µM (inactive)
